Measurements reported in US6376497B1, “Antifungal azole derivatives having a fluorinated vinyl group and process for preparing same” (Korea Research Institute of Chemical Technology, priority 1999, dated 2002).
In brackets after ≈: the same amount, converted by molar mass.

Tests used:
Assay in all cases: In vitro antifungal activity, microbroth dilution MIC
Type in all cases: cell-based
[1] = system: Candida tropicalis A. 13803; settings: 4 to 48 hours; for Minimal inhibitory concentration(MIC), C. tropicalis A. 13803: RPMI-1640, 35° C., no growth observed; for Minimal inhibitory concentration (MIC): C. tropicalis A. 13803, RPMI-1640, 35° C.
Summary of the method: (§1)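 Broth microdilution adapted from NCCLS M27, in RPMI-1640 with 0.165 M MOPS, pH 7.0. Yeast or mould inoculum at 2×10^3 CFU/ml was mixed 1:1 with DMSO-derived compound solutions (200 to 0.10 μg/ml before mixing) and incubated at 35 °C for 4 to 48 h. MIC was the concentration showing no growth.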

[2] = system: Cryptococcus neoformans IFM. 40092; settings: 4 to 48 hours; for Minimal inhibitory concentration(MIC), Cry. neoformans IFM. 40092: RPMI-1640, 35° C., no growth observed; for Minimal inhibitory concentration (MIC): Cry. neoformans IFM. 40092, RPMI-1640, 35° C.
Summary of the method: as §1

[3] = system: Aspergillus niger A. 16404; settings: 4 to 48 hours; for Minimal inhibitory concentration(MIC), A. niger A. 16404: RPMI-1640, 35° C., no growth observed; for Minimal inhibitory concentration (MIC): A. niger A. 16404, RPMI-1640, 35° C.
Summary of the method: as §1

Candida albicans C1-2 = settings: 4 to 48 hours; for Minimal inhibitory concentration(MIC), C. albicans C1-2: RPMI-1640, 35° C., no growth observed; for Minimal inhibitory concentration (MIC): C. albicans C1-2, RPMI-1640, 35° C.
Summary of the method: as §1

[4] = system: Torulopsis glabrata B. 16205; settings: 4 to 48 hours; for Minimal inhibitory concentration(MIC), T. glabrata B. 16205: RPMI-1640, 35° C., no growth observed; for Minimal inhibitory concentration (MIC): T. glabrata B. 16205, RPMI-1640, 35° C.
Summary of the method: as §1

[5] = system: Candida albicans IFO. 1385; settings: 4 to 48 hours; for Minimal inhibitory concentration(MIC), C. albicans IFO. 1385: RPMI-1640, 35° C., no growth observed; for Minimal inhibitory concentration (MIC): C. albicans IFO. 1385, RPMI-1640, 35° C.
Summary of the method: as §1

[6] = system: Trichophyton mentagrophytes A. 9129; settings: 4 to 48 hours; for Minimal inhibitory concentration(MIC), T. mentagrophytes A. 9129: RPMI-1640, 35° C., no growth observed; for Minimal inhibitory concentration (MIC): T. mentagrophytes A. 9129, RPMI-1640, 35° C.
Summary of the method: as §1

[7] = system: Candida pseudotropicalis K. 11658; settings: 4 to 48 hours; for Minimal inhibitory concentration(MIC), C. pseudotropicalis K. 11658: RPMI-1640, 35° C., no growth observed; for Minimal inhibitory concentration (MIC): C. pseudotropicalis K. 11658, RPMI-1640, 35° C.
Summary of the method: as §1

[8] = system: Cryptococcus neoformans B. 42419; settings: 4 to 48 hours; for Minimal inhibitory concentration(MIC), Cry. neoformans B. 42419: RPMI-1640, 35° C., no growth observed; for Minimal inhibitory concentration (MIC): Cry. neoformans B. 42419, RPMI-1640, 35° C.
Summary of the method: as §1

[9] = system: Trichophyton mentagrophytes B. 32663; settings: 4 to 48 hours; for Minimal inhibitory concentration(MIC), T. mentagrophytes B. 32663: RPMI-1640, 35° C., no growth observed; for Minimal inhibitory concentration (MIC): T. mentagrophytes B. 32663, RPMI-1640, 35° C.
Summary of the method: as §1

[10] = system: Candida parapsitosis A. 7330; settings: 4 to 48 hours; for Minimal inhibitory concentration(MIC), C. parapsitosis A. 7330: RPMI-1640, 35° C., no growth observed; for Minimal inhibitory concentration (MIC): C. parapsitosis A. 7330, RPMI-1640, 35° C.
Summary of the method: as §1

Candida krusei K. 11655 = settings: 4 to 48 hours; for Minimal inhibitory concentration(MIC), C. krusei K. 11655: RPMI-1640, 35° C., no growth observed; for Minimal inhibitory concentration (MIC): C. krusei K. 11655, RPMI-1640, 35° C.
Summary of the method: as §1

[11] = system: Cryptococcus neoformans A. 34144; settings: 4 to 48 hours; for Minimal inhibitory concentration(MIC), Cry. neoformans A. 34144: RPMI-1640, 35° C., no growth observed; for Minimal inhibitory concentration (MIC): Cry. neoformans A. 34144, RPMI-1640, 35° C.
Summary of the method: as §1

[12] = system: Candida albicans A. 10231; settings: 4 to 48 hours; for Minimal inhibitory concentration(MIC), C. albicans A. 10231: RPMI-1640, 35° C., no growth observed; for Minimal inhibitory concentration (MIC): C. albicans A. 10231, RPMI-1640, 35° C.
Summary of the method: as §1

[13] = system: Aspergillus furnigatus B. 19119; settings: 4 to 48 hours; for Minimal inhibitory concentration(MIC), A furnigatus B. 19119: RPMI-1640, 35° C., no growth observed; for Minimal inhibitory concentration (MIC): A furnigatus B. 19119, RPMI-1640, 35° C.
Summary of the method: as §1

Minimal inhibitory concentration(MIC), C. tropicalis A. 13803 [1] [µg/mL] | Minimal inhibitory concentration(MIC), Cry. neoformans IFM. 40092 [2] [µg/mL] | Minimal inhibitory concentration(MIC), A. niger A. 16404 [3] [µg/mL] | Minimal inhibitory concentration(MIC), C. albicans C1-2 (Candida albicans C1-2) [µg/mL] | Minimal inhibitory concentration(MIC), T. glabrata B. 16205 [4] [µg/mL] | Minimal inhibitory concentration(MIC), C. albicans IFO. 1385 [5] [µg/mL] | Minimal inhibitory concentration(MIC), T. mentagrophytes A. 9129 [6] [µg/mL] | Minimal inhibitory concentration(MIC), C. pseudotropicalis K. 11658 [7] [µg/mL] | Minimal inhibitory concentration(MIC), Cry. neoformans B. 42419 [8] [µg/mL] | Minimal inhibitory concentration(MIC), T. mentagrophytes B. 32663 [9] [µg/mL] | Minimal inhibitory concentration(MIC), C. parapsitosis A. 7330 [10] [µg/mL] | Minimal inhibitory concentration(MIC), C. krusei K. 11655 (Candida krusei K. 11655) [µg/mL] | Minimal inhibitory concentration(MIC), Cry. neoformans A. 34144 [11] [µg/mL] | Minimal inhibitory concentration(MIC), C. albicans A. 10231 [12] [µg/mL] | Minimal inhibitory concentration(MIC), A furnigatus B. 19119 [13] [µg/mL] | Minimal inhibitory concentration (MIC) [1] [µg/mL] | Minimal inhibitory concentration (MIC) [2] | Minimal inhibitory concentration (MIC) [3] [µg/mL] | Minimal inhibitory concentration (MIC) (Candida albicans C1-2) [µg/mL] | Minimal inhibitory concentration (MIC) [4] [µg/mL] | Structure (SMILES) | further results
100 | 0.39 | >100 | 12.5 | 50.0 | 1.56 | 6.25 | 25.0 | 1.56 | 3.13 | >100 | >100 | 1.56 | 25.0 | >100 | – | – | – | – | – | FC(Oc1ccc(OCC2COC(Cn3cncn3)(c3ccc(Cl)cc3Cl)O2)cc1)=C(c1ccc(F)cc1)C(F)(F)F (mixture of isomers) [Ex. 123] | –
>100 | 0.39 | >100 | >100 | >100 | 12.5 | 100 | 50.0 | 1.56 | 100 | >100 | >100 | 0.78 | >100 | >100 | – | – | – | – | – | Cc1ccc(C(=C(F)OCC2COC(Cn3cncn3)(c3ccc(Cl)cc3Cl)O2)C(F)(F)F)cc1 (mixture of isomers) [Ex. 81] | –
– | – | – | – | – | – | – | – | – | – | – | – | – | – | – | 25.0 (≈ 53.5 µM) | ≦0.10 μg/ml | 1.56 (≈ 3.34 µM) | 3.13 (≈ 6.7 µM) | 3.13 (≈ 6.7 µM) | FC(=Cc1cccc(F)c1)OCC1COC(Cn2ccnc2)(c2ccc(Cl)cc2Cl)O1 (stereo not drawn) [Ex. 15] | Minimal inhibitory concentration (MIC) [5]: ≦0.10 μg/ml; Minimal inhibitory concentration (MIC) [6]: 0.39 µg/mL (≈ 0.835 µM); Minimal inhibitory concentration (MIC) [7]: 3.13 µg/mL (≈ 6.7 µM); Minimal inhibitory concentration (MIC) [8]: 0.20 µg/mL (≈ 0.428 µM); Minimal inhibitory concentration (MIC) [9]: ≦0.10 μg/ml; Minimal inhibitory concentration (MIC) [10]: 6.26 µg/mL (≈ 13.4 µM); Minimal inhibitory concentration (MIC) (Candida krusei K. 11655): 6.25 µg/mL (≈ 13.4 µM); Minimal inhibitory concentration (MIC) [11]: 0.20 µg/mL (≈ 0.428 µM); Minimal inhibitory concentration (MIC) [12]: 6.25 µg/mL (≈ 13.4 µM); Minimal inhibitory concentration (MIC) [13]: 0.78 µg/mL (≈ 1.67 µM)
– | – | – | – | – | – | – | – | – | – | – | – | – | – | – | 25.0 (≈ 47.1 µM) | 0.39 µg/mL (≈ 0.734 µM) | 100 (≈ 188 µM) | 6.25 (≈ 11.8 µM) | 12.5 (≈ 23.5 µM) | Cc1cccc(C(=C(F)OCC2COC(Cn3ccnc3)(c3ccc(Cl)cc3Cl)O2)C(F)(F)F)c1 (stereo not drawn) [Ex. 20] | Minimal inhibitory concentration (MIC) [5]: 0.78 µg/mL (≈ 1.47 µM); Minimal inhibitory concentration (MIC) [6]: 12.5 µg/mL (≈ 23.5 µM); Minimal inhibitory concentration (MIC) [7]: 100 µg/mL (≈ 188 µM); Minimal inhibitory concentration (MIC) [8]: 1.56 µg/mL (≈ 2.94 µM); Minimal inhibitory concentration (MIC) [9]: 6.25 µg/mL (≈ 11.8 µM); Minimal inhibitory concentration (MIC) [10]: >100 µg/mL; Minimal inhibitory concentration (MIC) (Candida krusei K. 11655): 100 µg/mL (≈ 188 µM); Minimal inhibitory concentration (MIC) [11]: 1.56 µg/mL (≈ 2.94 µM); Minimal inhibitory concentration (MIC) [12]: 6.25 µg/mL (≈ 11.8 µM); Minimal inhibitory concentration (MIC) [13]: 50.0 µg/mL (≈ 94.1 µM)
